This note sets out measurements from patent US12173018B2, “Penicillin-binding protein inhibitors” (priority 2018, dated 2024).

The target of one assay is E. coli PBP3 (Escherichia coli (strain K12), UniProt P0AD68). Put plainly: E. coli PBP3 Bocillin-FL fluorescence polarization competition binding assay. The method in brief: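 Purified E. coli PBP (1.5 μM final) competed with inhibitor (0-1000 μM) for Bocillin-FL (0.1 μM final) in 50 mM Hepes pH 8.0, 300 mM NaCl, 5% glycerol. Fluorescence polarization (ex 490/em 520 nm) was read continuously for 60 min after Bocillin-FL addition. EC50 was the concentration that reduced Bocillin-FL binding by 50%.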
E. coli PBP3, sequence (P0AD68 whole entry): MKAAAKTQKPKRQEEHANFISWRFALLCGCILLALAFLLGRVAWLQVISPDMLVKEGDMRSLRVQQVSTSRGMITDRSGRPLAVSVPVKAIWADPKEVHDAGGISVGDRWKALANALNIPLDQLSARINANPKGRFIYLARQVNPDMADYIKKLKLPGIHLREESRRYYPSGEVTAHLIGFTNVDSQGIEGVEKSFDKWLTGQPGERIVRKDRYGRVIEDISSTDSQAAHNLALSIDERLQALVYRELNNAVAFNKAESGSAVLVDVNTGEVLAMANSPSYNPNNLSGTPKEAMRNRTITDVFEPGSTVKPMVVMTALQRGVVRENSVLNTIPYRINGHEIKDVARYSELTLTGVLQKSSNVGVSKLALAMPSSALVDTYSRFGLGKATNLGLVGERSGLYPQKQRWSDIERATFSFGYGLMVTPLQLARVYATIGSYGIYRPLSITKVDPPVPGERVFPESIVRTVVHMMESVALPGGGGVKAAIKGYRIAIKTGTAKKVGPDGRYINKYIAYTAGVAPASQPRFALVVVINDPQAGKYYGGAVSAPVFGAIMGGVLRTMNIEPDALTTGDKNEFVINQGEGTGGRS

A further assay deals with E. coli PBP1b (Escherichia coli (strain K12), UniProt P02919). Put plainly: Radioligand competition binding assay with 14C-labeled boronic acid probe, PBP1b. An excerpt:
To determine the ability of boronic acid-based test PBP inhibitors to bind Penicillin Binding Proteins (PBPs), a radio-labelled boronic acid PBP inhibitor
[drawing 751] was used in competition binding assays to determine boronic acid PBP inhibitor binding to PBP1a or PBP1b from Escherichia coli. PBP1a and PBP1b were purified as described previously (Bertsche, U.; et al., J. Biol. Chem. 2005, 280 (45), 38096-38101; Born, P.; et al., J. Biol. Chem. 2006. 281 (37), 26985-26993). To establish assay conditions for competition binding, an enzyme titration/saturation binding experiment was performed. Saturation binding was performed in a buffer comprised of 20 mM Tris (pH 7.5), 500 mM NaCl and 0.1% (v/v) TritonX-100, with PBP1a/PBP1b at a final concentration of 0.1 μM and Compound A at final concentrations ranging from 0-100 μM. Mixtures were incubated for 60 minutes, then applied to Zeba Spin Desalting columns or plates (ThermoFisher Scientific) and centrifuged at 1000-1500×g for 2 minutes. The flow through, containing PBP bound with Compound A, was recovered and 100 μL mixed with 5 mL of UltimaGold liquid scintillation cocktail (Perkin Elmer), and the radioactivity counted using a Beckman Coulter LS 6500 Multipurpose scintillation counter. PBP binding of Compound A approached saturation at 20 μM of ^14C-labeled probe. The competition binding assay was validated using the beta-lactam ampicillin, with Compound A at a final concentration of 20 μM, PBP1a/PBP1b at a final concentration of 0.1 μM. PBP1a/PBP1b was incubated with ampicillin in a 96-well microplate for 60 minutes, then Compound A was added and the mixtures incubated for an additional 60 minutes. The mixtures were then applied to Zeba Spin desalting plates and centrifuged at 1000×g for 2 minutes. The flow through was recovered and 100 μl mixed with 5 ml of UltimaGold liquid scintillation cocktail and the radioactivity counted. […] Binding assays with boronic acid PBP inhibitors were performed in an identical fashion. The potency of boronic acid PBP inhibitors was reported as the EC50 value.

For another assay, the system named is E. coli ATCC 25922. Put plainly: Broth microdilution MIC, E. coli ATCC 25922. It counts as cell-based. To be noted: Escherichia coli, ATCC25922; E. coli ATCC 25922, broth microdilution; read-out: MIC E. coli 25922. The procedure, abridged: (§1)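 Broth microdilution MICs followed CLSI methods in cation-supplemented Mueller-Hinton broth, with 2-fold serial compound dilutions. Log-phase cultures grown 3–5 h were added to a starting inoculum of 5×10^5 CFU/mL and incubated 16–20 h at 37 °C. The MIC was read visually as the lowest concentration with no growth.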

The next assay concerns E. coli AG100. The assay is described as follows: Broth microdilution MIC, E. coli AG100 (wild-type parent). It counts as cell-based. To be noted: Escherichia coli; wild-type parent E. coli AG100, broth microdilution; read-out: MIC E. coli AG100. The method in brief: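 Starting inoculum of 5×10^5 CFU/mL, from colonies grown 3-5 h in Mueller-Hinton broth with divalent cations, added to two-fold compound dilution series.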

The next assay concerns E. coli 901C. Put plainly: microbe, parasite or virus in culture. The class given is cell-based. Particulars: Escherichia coli; hyper-permeable E. coli 901C, broth microdilution; read-out: MIC E. coli 901C. The method in brief: as §1
In another assay the test system is E. coli AG100A. The assay is described as follows: microbe, parasite or virus in culture. It counts as cell-based. Particulars: Escherichia coli, read-out: MIC E. coli AG100A. The procedure, abridged: as §1
The test system of the next assay is E. coli D22. The assay is described as follows: microbe, parasite or virus in culture. It counts as cell-based. To be noted: Escherichia coli; hyper-permeable E. coli D22, broth microdilution; read-out: MIC E. coli D22. The procedure, abridged: as §1
A further assay has as its system K. pneumoniae SI-117. The assay is described as follows: microbe, parasite or virus in culture. It counts as cell-based. Particulars: Klebsiella pneumoniae, SI117, read-out: MIC K. pneumoniae SI-117. The method in brief:
as §1

Another assay deals with K. pneumoniae UMM. Put plainly: microbe, parasite or virus in culture. The class given is cell-based. Particulars: Klebsiella pneumoniae; K. pneumoniae UMM producing SHV-5 and KPC-2; read-out: MIC K. pneumoniae UMM. The procedure, abridged: as §1
Another assay concerns K. pneumoniae 848844. Put plainly: microbe, parasite or virus in culture. The class given is cell-based, Klebsiella pneumoniae. To be noted: Klebsiella pneumoniae; K. pneumoniae 848844 producing SHV-11 and KPC-2; read-out: MIC K. pneumoniae 848844. The method in brief:
as §1

The test system of assay [1] is engineered strain of Escherichia coli harboring CTX-M15. Put plainly: microbe, parasite or virus in culture. The class given is cell-based. Particulars: Escherichia coli, read-out: Microbiological Activity (MIC in mg/L), E. coli DH5α/pLBII-CTX-M15, engineered strain producing CTX-M15.
Where [2] appears, read: fluorescence polarization competition binding with Bocillin-FL, read-out: E. coli K12 PBP3 Potency.

Converted amounts (≈) assume the structure as drawn. Where a name gives a salt, the structure may show the parent alone. Read-outs that look alike come from different tables or passages of the source. Bounds are passed on as bounds.

E. coli PBP1b, sequence (P02919 whole entry): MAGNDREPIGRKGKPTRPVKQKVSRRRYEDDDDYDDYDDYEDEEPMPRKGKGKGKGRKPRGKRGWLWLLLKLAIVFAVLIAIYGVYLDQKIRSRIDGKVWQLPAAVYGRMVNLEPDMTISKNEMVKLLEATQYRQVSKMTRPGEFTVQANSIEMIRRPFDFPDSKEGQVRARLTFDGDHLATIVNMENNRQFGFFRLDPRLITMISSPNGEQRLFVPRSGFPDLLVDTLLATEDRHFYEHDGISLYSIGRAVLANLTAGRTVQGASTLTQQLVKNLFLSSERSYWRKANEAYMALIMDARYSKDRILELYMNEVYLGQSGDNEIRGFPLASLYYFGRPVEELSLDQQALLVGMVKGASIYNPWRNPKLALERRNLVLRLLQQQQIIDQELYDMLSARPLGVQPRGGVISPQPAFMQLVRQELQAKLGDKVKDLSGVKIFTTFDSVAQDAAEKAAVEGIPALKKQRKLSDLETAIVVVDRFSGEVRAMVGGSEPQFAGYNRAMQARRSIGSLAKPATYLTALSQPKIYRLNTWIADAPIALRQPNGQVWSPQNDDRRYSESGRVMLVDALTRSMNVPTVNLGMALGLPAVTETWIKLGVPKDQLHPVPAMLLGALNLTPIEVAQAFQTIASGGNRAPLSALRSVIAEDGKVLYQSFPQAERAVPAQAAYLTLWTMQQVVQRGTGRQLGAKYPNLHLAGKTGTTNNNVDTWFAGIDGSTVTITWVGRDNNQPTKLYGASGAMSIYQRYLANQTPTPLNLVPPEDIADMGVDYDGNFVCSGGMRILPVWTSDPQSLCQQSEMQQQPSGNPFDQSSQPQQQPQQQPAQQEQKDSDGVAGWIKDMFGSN

As to `CCN1CCN(C(=O)NC(C(=O)N[C@H]2Cc3cccc(C(=O)O)c3OB2O)c2cccnc2)C(=O)C1=O` (stereo partly drawn) [Example 105, (3R)-3-(2-(4-ethyl-2,3-dioxopiperazine-1-carboxamido)-2-(pyridin-3-yl)acetamido)-2-hydroxy-3,4-dihydro-2H-benzo[e][1,2]oxaborinine-8-carboxylic acid], the EC50 is 30 to 500 µM on E. coli PBP3 and greater than 100 µM on E. coli PBP1b. Besides, the MIC is 32 to 64 µg/mL in the assay with E. coli ATCC 25922; 32 to 64 µg/mL in the assay with E. coli AG100; less than 0.25 µg/mL in the assay on E. coli 901C; 2 to 4 µg/mL in the assay with E. coli AG100A; 8 to 16 µg/mL with E. coli D22; greater than 128 µg/mL in the assay on K. pneumoniae SI-117. Moreover, the results for the MIC (in the assay on K. pneumoniae UMM; in the assay on K. pneumoniae 848844; in assay [1]) were 32 to 64 µg/mL, greater than 128 µg/mL and 32 to 64 mg/L (≈ 62.8 to 126 µM), respectively.

Regarding `CCN1CCN(C(=O)NC(C(=O)N[C@H]2Cc3cccc(C(=O)O)c3OB2O)c2ccc[n+](CC(=O)[O-])c2)C(=O)C1=O` (stereo partly drawn) [Example 108, 2-(3-(2-(((R)-8-carboxy-2-hydroxy-3,4-dihydro-2H-benzo[e][1,2]oxaborinin-3-yl)amino)-1-(4-ethyl-2,3-dioxopiperazine-1-carboxamido)-2-oxoethyl)pyridin-1-ium-1-yl)acetate], the results for the EC50 on E. coli PBP3 and at E. coli PBP1b were 30 to 500 µM and 10 to 100 µM, respectively. Moreover, the MIC with E. coli ATCC 25922 was 32 to 64 µg/mL; with E. coli AG100, greater than 128 µg/mL; in the assay on E. coli 901C, 8 to 16 µg/mL; in the assay with E. coli AG100A, 32 to 64 µg/mL; with E. coli D22 it was 8 to 16 µg/mL; with K. pneumoniae SI-117, greater than 128 µg/mL. The MIC in the assay with K. pneumoniae UMM was 32 to 64 µg/mL; in the assay on K. pneumoniae 848844, greater than 128 µg/mL; in [1], 32 to 64 mg/L (≈ 56.4 to 113 µM).

As for `CCN1CCN(C(=O)N[C@H](C(=O)N[C@H]2Cc3cccc(C(=O)O)c3OB2O)C2(CO)CC2)C(=O)C1=O` [Example 63, (R)-3-((S)-2-(4-ethyl-2,3-dioxopiperazine-1-carboxamido)-2-(1-(hydroxymethyl)cyclopropyl)acetamido)-2-hydroxy-3,4-dihydro-2H-benzo[e][1,2]oxaborinine-8-carboxylic acid], the EC50 on E. coli PBP3 (setting [2]) is greater than 500 µM; at E. coli PBP1b, less than 10 µM. Also, in assay [1], the MIC fell in the range of 128 to 256 mg/L (≈ 255 to 510 µM).

As for `CCN1CCN(C(=O)NC(C(=O)N[C@H]2Cc3cccc(C(=O)O)c3OB2O)C2CCN(CC(=O)O)CC2)C(=O)C1=O` (stereo partly drawn) [Example 72, (3R)-3-(2-(1-(carboxymethyl)piperidin-4-yl)-2-(4-ethyl-2,3-dioxopiperazine-1-carboxamido)acetamido)-2-hydroxy-3,4-dihydro-2H-benzo[e][1,2]oxaborinine-8-carboxylic acid, trifluoroacetic acid salt], the figures for the EC50 at E. coli PBP3 and at E. coli PBP1b were 30 to 500 µM and less than 10 µM, respectively. Further, the MIC in [1] fell in the range of 128 to 256 mg/L.

For `CCN1CCN(C(=O)N[C@H](C(=O)N[C@H]2Cc3cccc(C(=O)O)c3OB2O)C2CCN(C(=N)N)CC2)C(=O)C1=O` [Example 92, (R)-3-((S)-2-(1-carbamimidoylpiperidin-4-yl)-2-(4-ethyl-2,3-dioxopiperazine-1-carboxamido)acetamido)-2-hydroxy-3,4-dihydro-2H-benzo[e][1,2]oxaborinine-8-carboxylic acid], the EC50 on E. coli PBP3 is greater than 500 µM; at E. coli PBP1b, less than 10 µM. Moreover, the MIC in assay [1] was 128 to 256 mg/L (≈ 230 to 459 µM).

On to `CCN1CCN(C(=O)NC(C(=O)N[C@H]2Cc3cccc(C(=O)O)c3OB2O)c2ccc(O)cc2Cl)C(=O)C1=O` (stereo partly drawn) [Example 88, (3R)-3-(2-(2-chloro-4-hydroxyphenyl)-2-(4-ethyl-2,3-dioxopiperazine-1-carboxamido)acetamido)-2-hydroxy-3,4-dihydro-2H-benzo[e][1,2]oxaborinine-8-carboxylic acid], for which the EC50 was less than 30 µM on E. coli PBP3 (setting [2]) and less than 10 µM on E. coli PBP1b. Also, in [1], the MIC was in the range of 128 to 256 mg/L (≈ 229 to 458 µM).

As for `CCN1CCN(C(=O)NC(C(=O)N[C@H]2Cc3cccc(C(=O)O)c3OB2O)c2ncccn2)C(=O)C1=O` (stereo partly drawn) [Example 111, (3R)-3-(2-(4-ethyl-2,3-dioxopiperazine-1-carboxamido)-2-(pyrimidin-2-yl)acetamido)-2-hydroxy-3,4-dihydro-2H-benzo[e][1,2]oxaborinine-8-carboxylic acid], the EC50 at E. coli PBP3 was 30 to 500 µM; on E. coli PBP1b, greater than 100 µM. The MIC with E. coli ATCC 25922 is 32 to 64 µg/mL; with E. coli AG100, 32 to 64 µg/mL; with E. coli 901C, 0.5 to 1 µg/mL; in the assay on E. coli AG100A, 2 to 4 µg/mL; in the assay on E. coli D22, 8 to 16 µg/mL; with K. pneumoniae SI-117, greater than 128 µg/mL. Further, the MIC is 32 to 64 µg/mL with K. pneumoniae UMM, greater than 128 µg/mL in the assay with K. pneumoniae 848844 and 32 to 64 mg/L (≈ 62.7 to 125 µM) in [1].

On to `CCN1CCN(C(=O)NC(C(=O)N[C@H]2Cc3cccc(C(=O)O)c3OB2O)c2ccc(OCCO)cc2)C(=O)C1=O` (stereo partly drawn) [Example 74, (3R)-3-(2-(4-ethyl-2,3-dioxopiperazine-1-carboxamido)-2-(4-(2-hydroxyethoxy)phenyl)acetamido)-2-hydroxy-3,4-dihydro-2H-benzo[e][1,2]oxaborinine-8-carboxylic acid], for which the EC50 was 30 to 500 µM at E. coli PBP3 and greater than 100 µM at E. coli PBP1b. Besides, the MIC in assay [1] is 128 to 256 mg/L (≈ 225 to 450 µM).

Take `CCN1CCN(C(=O)NC(C(=O)N[C@H]2Cc3cccc(C(=O)[O-])c3OB2O)c2ccc[n+](C)c2)C(=O)C1=O` (stereo partly drawn) [Example 106, (3R)-3-(2-(4-ethyl-2,3-dioxopiperazine-1-carboxamido)-2-(1-methylpyridin-1-ium-3-yl)acetamido)-2-hydroxy-3,4-dihydro-2H-benzo[e][1,2]oxaborinine-8-carboxylate]: the results for the EC50 on E. coli PBP3 (setting [2]) and on E. coli PBP1b were greater than 500 µM and less than 10 µM, respectively. Moreover, in assay [1], the MIC was in the range of 32 to 64 mg/L (≈ 61.1 to 122 µM).

Take `CCN1CCN(C(=O)NC(CNS(N)(=O)=O)C(=O)N[C@H]2Cc3cccc(C(=O)O)c3OB2O)C(=O)C1=O` (stereo partly drawn) [Example 68, (3R)-3-(2-(4-ethyl-2,3-dioxopiperazine-1-carboxamido)-3-(sulfamoylamino)propanamido)-2-hydroxy-3,4-dihydro-2H-benzo[e][1,2]oxaborinine-8-carboxylic acid]: the EC50 was greater than 500 µM at E. coli PBP3 (setting [2]) and less than 10 µM on E. coli PBP1b. Moreover, in [1], the MIC was in the range of 32 to 64 mg/L (≈ 59.2 to 118 µM).
